Measured values published in PubChem BioAssay AID602307 (Southern Research Specialized Biocontainment Screening …, 2012).
Active and inactive are the calls of the source. The rule behind the calls is not given here.

Tested on: VEEV TC-83 infected cells, virus titer reduction
Assay: VEEV titer reduction by compounds, cell-based, TC-83 strain, virus titer (AID 602307)
Conditions: for log virus titer change: stronger effect = lower value

For `O=c1c2cc([N+](=O)[O-])ccc2nc(CN2CCN(c3ccccc3)CC2)n1-c1ccccc1F`, the outcome was “active” and the log virus titer change (titer change, at 10 µM) was -1.3.

With `O=C(Cc1ccccc1)Nc1nc2c(s1)CCCC2` the log virus titer change (at 5 µM) was -0.01 (inactive).

With `O=C(Oc1ccc2ccccc2c1Br)N1CCCCCC1` the outcome was “active” and the log virus titer change (titer change, at 10 µM) was -2.09.

With `O=c1nc(Nc2ccc(OCc3ccccc3)cc2)sc2ncccc12` the outcome was “active” and the log virus titer change (titer change, at 10 µM) was -3.43.

`CN1CCN(Cc2nc3ccc([N+](=O)[O-])cc3c(=O)n2-c2ccccc2F)CC1` was tested, and the log virus titer change (at 5 µM) was under -6.36.

In the case of `Cc1cc(Cc2cc(C)cc(C(C)(C)C)c2O)c(O)c(Cc2cc(C)cc(C(C)(C)C)c2O)c1`, the log virus titer change (at 5 µM) is reported as -0.734 (inactive).

In the case of `O=C(Cc1cccs1)Nc1nc2c(s1)CCCC2`, the outcome is reported as “active” and the log virus titer change (titer change, at 10 µM) is reported as -2.14.

In the case of `O=C(Cc1cccs1)Nc1nc2ccccc2s1`, the log virus titer change (at 5 µM) is reported as -0.238 (inactive).

In the case of `CCN1CCN(Cc2nc3ccc([N+](=O)[O-])cc3c(=O)n2-c2ccccc2F)CC1`, the log virus titer change (at 5 µM) is reported as under -6.36 and the log virus titer change (titer change, at 10 µM) is reported as -5.8.

`CC(C)N1CCN(Cc2nc3ccc([N+](=O)[O-])cc3c(=O)n2-c2ccccc2F)CC1` was tested, and the log virus titer change (at 5 µM) was 0.041 (inactive).

`CCOC(=O)c1ccc(Nc2nc(=O)c3cccnc3s2)cc1` was tested, and the outcome was “active” and the log virus titer change (titer change, at 10 µM) was -3.31.

In the case of `Clc1ccc2nnnc(-c3ccccc3)c2c1`, the outcome is reported as “active” and the log virus titer change (titer change, at 10 µM) is reported as -4.36.

In the case of `O=C(Cc1cccs1)Nc1nccs1`, the log virus titer change (at 5 µM) is reported as -0.062 (inactive).

In the case of `CN(C(=O)Cc1cccs1)c1nc2c(s1)CCCC2`, the log virus titer change (at 5 µM) is reported as 0.281 (inactive).

`O=C(Nc1nc2c(s1)CCCC2)c1cccs1` was tested, and the log virus titer change (at 5 µM) was -0.12 (inactive).

`Cc1ccccc1C(=O)Nc1ccc2c(c1)CCCN2C(=O)c1cccs1` was tested, and the outcome was “active” and the log virus titer change (titer change, at 10 µM) was -2.04.

With `O=c1c2cc([N+](=O)[O-])ccc2nc(CN2CCOCC2)n1-c1ccccc1F` the log virus titer change (at 5 µM) was 0.297 (inactive).
